# Values of other authors as cited in patent US10434198B2, “Radiopharmaceutical solutions with advantageous properties” (Sciencons AS, priority 2015, dated 2019).
# How the values were obtained:
# MDA-MB-231 (SA) = settings: 250 kBq/kg (3.6×10^11 ^223Ra atoms), Suominen et al. 2013
# [1] = 10 minutes after injection
Structure (SMILES),survival advantage (MDA-MB-231 (SA)) [%],reduction of radium in blood [1] [%]
"[Cl][223Ra][Cl] [^223Ra, radium-223 dichloride]",43,
[Ra] [radium],,88
